Experimental data published in ChEMBL document CHEMBL5608141, “Identification of compartment-specific drug sensitivities in CRC organoid-stroma co-cultures” (2024).

Experiments:
Format in all cases: functional, Homo sapiens
Design in all cases: dose or concentration left out as unconfirmed
Colon cancer organoid [1] = test: Identification of compartment-specific drug sensitivities in O20 CRC organoid-stroma F20 CAF co-cultures. Organoid is transduced with Lucferase2-P2A-EGFP lentivirus, fibroblast with Renilla-dsRed lentivirus. Dual-Glo Luciferase assay is used to report viability data.
Colon cancer organoid [2] = test: Identification of compartment-specific drug sensitivities in O14 CRC organoid-stroma F14 CAF co-cultures. Organoid is transduced with Lucferase2-P2A-EGFP lentivirus, fibroblast with Renilla-dsRed lentivirus. Dual-Glo Luciferase assay is used to report viability data.
Colon cancer organoid [3] = test: Identification of compartment-specific drug sensitivities in O06 CRC organoid-stroma F06 CAF co-cultures. Organoid is transduced with Lucferase2-P2A-EGFP lentivirus, fibroblast with Renilla-dsRed lentivirus. Dual-Glo Luciferase assay is used to report viability data.
[4] = Transduced with Lucferase2-P2A-EGFP lentivirus
[5] = Transduced with Renilla-dsRed lentivirus

Row | SMILES | Cell Viability (Colon cancer organoid [1]; [4]) | Cell Viability (Colon cancer organoid [1]; [5]) | Cell Viability (Colon cancer organoid [2]; [4]) | Cell Viability (Colon cancer organoid [2]; [5]) | Cell Viability (Colon cancer organoid [3]; [4]) | Cell Viability (Colon cancer organoid [3]; [5])
1 | Cc1c(C(=O)Nc2ccc(Oc3ccnc4[nH]cc(-c5ccccc5)c34)c(F)c2)c(=O)n(-c2ccc(F)cc2)n1C | 225.47% | 22.9382% | 62.1416% | 28.9447% | 73.6786% | 56.2803%
2 | CN(C)C(=O)Cn1cc(-c2ccc(-c3cncc4ccccc34)cc2)cn1 | 98.3492% | 25.8647% | 88.4928% | 18.4119% | 83.3121% | 47.4852%
3 | Cc1ccc2nc(NCCN)c3ncc(C)n3c2c1.O=C(O)C(F)(F)F.O=C(O)C(F)(F)F | 234.528% | 67.6056% | 111.823% | 88.3847% | 94.0156% | 112.188%
4 | CN(C)C(=O)Cn1cc(-c2ccc(-c3nnc4ccccn34)cc2)cn1 | 167.784% | 52.6743% | 99.1399% | 78.8551% | 105.212% | 110.192%
5 | Cc1ncsc1-c1ccc(CNC(=O)[C@@H]2C[C@@H](O)CN2C(=O)[C@@H](NC(=O)CCCCNC(=O)c2ccc(-c3ccc(N4CCN(C)CC4)c(NC(=O)c4c[nH]c(=O)cc4C(F)(F)F)c3)cc2)C(C)(C)C)cc1 | 172.591% | 86.697% | 124.425% | 102.442% | 81.8894% | 85.2238%
6 | O=C(CNCc1cc2ccccc2[nH]1)N[C@H]1CC[C@@H](c2nc3ccccc3[nH]2)CC1 | 100.403% | 124.153% | 106.264% | 107.393% | 85.8975% | 91.436%
7 | N#CN1CC[C@H](C(=O)Nc2nc3c(s2)CN(C(=O)CN=[N+]=[N-])CC3)C1 [8RK64] | 67.6209% | 105.29% | 81.1298% | 93.9024% | 104.648% | 104.354%
8 | CN(C)[C@@H]1CCN(c2cc(-c3ccccc3)nc3ccnn23)C1 [(R)-ZINC-3573] | 97.984% | 99.7993% | 83.9602% | 82.5117% | 122.992% | 121.371%
9 | CN(C)[C@H]1CCN(c2cc(-c3ccccc3)nc3ccnn23)C1 [(S)-ZINC-3573] | 93.0253% | 112.128% | 98.973% | 77.8832% | 87.7689% | 121.05%
10 | Cn1cncc1[C@@](O)(COc1ccc(C#N)cc1-c1ccc(OC(F)(F)F)cc1)c1ccc(C#N)cc1 [A-108] | 89.1467% | 110.638% | 94.7328% | 120.862% | 61.6996% | 139.827%
11 | CCC(=N\O)/C(C)=C/c1ccc(F)c(C)c1 [A-226] | 93.31% | 115.263% | 131.471% | 101.092% | 127.527% | 100.08%
12 | CCCCN(CCCC)C(=O)CN1C[C@@H](c2cc(OC)c3c(c2)OCO3)[C@H](C(=O)O)[C@H]1CC(C)(C)CCC [A-545] | 123.099% | 97.2502% | 148.86% | 126.562% | 84.2855% | 55.5874%
13 | CSc1cccnc1N1CCN(Cc2nc3ccccc3[nH]2)CC1 [A-769] | 125.432% | 98.3481% | 118.57% | 113.172% | 75.6066% | 105.586%
14 | CN(C)CC#Cc1ccc(OCCCc2sc(N3CCc4cccc(C(=O)Nc5nc6ccccc6s5)c4C3)nc2C(=O)O)c(F)c1 [A-1155463] | 1.1769% | 177.943% | 2.034% | 67.3537% | 0.3385% | 128.541%
15 | CO[C@H]1CC[C@H](CNc2ccc(S(=O)(=O)NC(=O)c3ccc(N4CCN(CC5=C(c6ccc(Cl)cc6)CC(C)(C)CC5)CC4)cc3Oc3cnc4[nH]ccc4c3)cc2[N+](=O)[O-])CC1 [A-1211212] | 16.4932% | 159.244% | 54.5485% | 97.9178% | 8.693% | 108.861%
16 | COc1ccc2c(c1)O[C@H](c1ccc(OC)c(OC)c1)C[C@@H]2NC(=O)C1(c2ccc3c(c2)OC(F)(F)O3)CC1 [A-1596584] | 73.1553% | 142.746% | 91.0132% | 118.771% | 86.7173% | 88.6658%
17 | COc1ccc2c(c1)O[C@@H](c1ccc(OC)c(OC)c1)C[C@H]2NC(=O)C1(c2ccc3c(c2)OC(F)(F)O3)CC1 [A-1596586] | 84.651% | 101.93% | 83.2966% | 94.4694% | 95.9961% | 117.187%
18 | CCNC(=O)c1cc2c(-c3cc(C(C)(C)O)ccc3Oc3c(C)cc(F)cc3C)cn(C)c(=O)c2[nH]1 [ABBV-744] | 58.4777% | 215.224% | 77.9517% | 194.681% | 91.6049% | 287.135%
19 | CC#CC(=O)N1CCC[C@H]1c1nc(-c2ccc(C(=O)Nc3ccccn3)cc2)c2c(N)nccn12 [ACALABRUTINIB] | 96.3915% | 99.9657% | 75.641% | 83.8473% | 96.562% | 83.4698%
20 | CN(C)C/C=C/C(=O)Nc1cc2c(Nc3ccc(F)c(Cl)c3)ncnc2cc1O[C@H]1CCOC1.O=C(O)/C=C\C(=O)O.O=C(O)/C=C\C(=O)O [AFATINIB DIMALEATE] | 37.8231% | 73.123% | 29.0273% | 34.3509% | 26.678% | 56.3894%
21 | COc1cc(Nc2ncc3c(n2)-c2ccc(Cl)cc2C(c2c(F)cccc2OC)=NC3)ccc1C(=O)O [ALISERTIB] | 6.089% | 322.747% | 16.3683% | 117.657% | 7.435% | 169.322%
22 | Cc1nc(NC(=O)N2CCC[C@H]2C(N)=O)sc1-c1ccnc(C(C)(C)C(F)(F)F)c1 [ALPELISIB] | 70.8375% | 99.8659% | 47.6603% | 61.6268% | 74.6278% | 68.5217%
23 | CC(C)[C@H](C(=O)Nc1ccc(C(=O)NO)cc1)c1ccccc1 [AR-42] | 13.9942% | 352.85% | 24.8523% | 220.952% | 8.004% | 640.047%
24 | Cc1cnc(-c2cc(Cl)ccc2F)cc1-n1c(=O)n(CC(N)=O)c2ccccc21 [Al11] | 100.628% | 109.542% | 90.2433% | 100.795% | 79.8154% | 66.9379%
25 | Cc1ccccc1Oc1cc(-n2c(=O)cc(C(F)(F)F)[nH]c2=O)c2ccccc2c1Cl [BAY-069] | 84.1162% | 119.466% | 126.47% | 121.899% | 128.819% | 153.89%
26 | Cn1c(-c2csc(C3CCN(CC4=NC5N=CC=CC5N4)CC3)n2)nc2ccccc21 (stereo not given) [BAY-070] | 42.0794% | 84.0468% | 72.3778% | 60.078% | 29.934% | 49.5381%
27 | NS(=O)(=O)c1cc(NC(=O)C2(c3ccccc3Cl)CC2)ccc1Oc1cccc(Cl)c1 [BAY-207] | 177.814% | 111.752% | 120.584% | 143.533% | 102.145% | 97.9535%
28 | CNCc1ccccc1-c1csc([C@@H](C)Nc2nc(C)nc3cc(OC)c(OC)cc23)c1 [BAY-293] | 78.2703% | 145.24% | 65.4303% | 97.5193% | 41.2905% | 141.656%
29 | Cc1cc(NC(=O)c2cccc(S(F)(F)(F)(F)F)c2)cc(-n2ccn3nc(-c4cccnc4)cc23)c1 [BAY-309] | 122.672% | 127.793% | 149.605% | 88.4633% | 58.4282% | 47.7134%
30 | O=C(N1CCS(=O)(=O)CC1)N1C[C@H](c2ccc(OC(F)(F)F)cc2)C[C@H](c2nc(C3CC3)no2)C1 [BAY-386] | 61.9652% | 114.29% | 96.4412% | 110.483% | 109.098% | 172.496%
